Assays:
[1] = system: primitive neuroectodermal tumors; assay: Histochemical staining of biopsy sections with biotinylated chlorotoxin, summary; assay type: binding, human; settings: of 53 patients tested
Description: Most of the samples of human tissue, from both sexes, of different ages and races were obtained through the Cooperative Human Tissue Network, Tissue Procurement at UAB, UAB hospitals and the Human Brain Tissue Bank in London, Canada. Snap frozen tissue and fresh tissue embedded in a freezing gel were sliced at 8 microns and picked up onto positively charged glass slides. The sections were then fixed in 4% paraformaldehyde or milloniqs according to the staining protocol. Paraffin blocks were sectioned and prepared according to standard procedures.
Biopsy sections were blocked for 1 hour in 10% normal goat serum in PBS and treated with a dilution of biotinylated chlorotoxin overnight at 4° C. […]
Finally, a third adjacent section was stained with both hematoxylin, a cell nuclei specific stain, and eosin, a cytoplasmic stain. Therefore, for each tissue analyzed, three adjacent sections were stained. […] In the photomicrographs, adjacent sections are identified as follows: TM-601: biotinylated chlorotoxin detected by a brown reaction product of DAB with the biotin and further counterstained with methyl. green; Control: the control section stained with only methyl green; and, H&E: the hematoxylin and eosin stained section. […]

glioma cells [2] = settings: Ullrich and Sontheimer 1997; cited from earlier work
glioma cells [3] = settings: Transwell assays; Soroceanu et al.; cited from earlier work
membrane of glioma cells = settings: Soroceanu et al. 1998; cited from earlier work

For chlorotoxin, the “patients whose tumor material showed chlorotoxin specificity” value [1] is given as 50, the “effect on glioma cell proliferation” value (glioma cells [2]) is given as “enhances glioma cell proliferation” and the “effect on glioma cell migration” value (glioma cells [3]) is given as “inhibits the ability of glioma cells to migrate”. For the same substance, the “binding to glioma cells” value (membrane of glioma cells) was “selectively binds to the membrane of glioma cells”.
